Test results: ChEMBL document CHEMBL5465560, “Selectivity Literature for EUbOPEN Chemogenomic Library” (2024)
pIC50: −log10 of the molar value. Values belong to the molecule of their own block, whether it stands above or below them.

How the values were obtained:
[1] = molecular target: T1, Serine/threonine-protein kinase Nek1 (Homo sapiens) (UniProt Q96PY6); test: Selectivity interaction (Kinase panel (Eurofins)) EUB0001564a NEK1; conditions: at 1 µM
T1 sequence (whole entry): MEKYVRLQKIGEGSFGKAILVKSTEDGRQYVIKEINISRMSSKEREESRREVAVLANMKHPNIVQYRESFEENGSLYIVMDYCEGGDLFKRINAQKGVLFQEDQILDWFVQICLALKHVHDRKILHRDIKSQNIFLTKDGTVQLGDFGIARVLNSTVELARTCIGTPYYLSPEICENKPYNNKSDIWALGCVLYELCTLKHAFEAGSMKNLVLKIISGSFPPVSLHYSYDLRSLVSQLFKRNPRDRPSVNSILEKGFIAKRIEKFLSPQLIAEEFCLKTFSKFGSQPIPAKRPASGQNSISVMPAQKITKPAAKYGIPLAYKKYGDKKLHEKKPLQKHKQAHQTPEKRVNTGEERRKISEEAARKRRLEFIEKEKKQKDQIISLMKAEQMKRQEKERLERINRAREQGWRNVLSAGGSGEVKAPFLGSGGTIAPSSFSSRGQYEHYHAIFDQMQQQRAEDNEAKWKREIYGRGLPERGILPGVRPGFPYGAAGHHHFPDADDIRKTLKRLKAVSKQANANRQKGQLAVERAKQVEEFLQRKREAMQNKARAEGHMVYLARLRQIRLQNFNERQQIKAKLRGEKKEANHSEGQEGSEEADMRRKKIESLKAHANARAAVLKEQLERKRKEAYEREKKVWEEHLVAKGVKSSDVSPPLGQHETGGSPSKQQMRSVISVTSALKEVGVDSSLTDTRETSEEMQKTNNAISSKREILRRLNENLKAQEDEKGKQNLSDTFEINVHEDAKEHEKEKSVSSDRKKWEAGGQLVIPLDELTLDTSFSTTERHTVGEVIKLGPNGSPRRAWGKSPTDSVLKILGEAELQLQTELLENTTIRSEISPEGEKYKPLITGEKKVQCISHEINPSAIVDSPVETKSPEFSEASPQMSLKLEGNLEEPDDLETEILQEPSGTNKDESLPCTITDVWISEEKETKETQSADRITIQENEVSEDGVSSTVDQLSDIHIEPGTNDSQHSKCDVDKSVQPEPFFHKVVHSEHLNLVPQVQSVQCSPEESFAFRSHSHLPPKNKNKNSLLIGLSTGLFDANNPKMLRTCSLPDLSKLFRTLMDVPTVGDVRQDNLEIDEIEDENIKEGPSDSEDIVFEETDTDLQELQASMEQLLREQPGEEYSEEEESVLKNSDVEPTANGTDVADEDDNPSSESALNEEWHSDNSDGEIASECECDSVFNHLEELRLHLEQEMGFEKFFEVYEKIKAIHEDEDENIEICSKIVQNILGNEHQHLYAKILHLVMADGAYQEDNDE

[2] = molecular target: Tyrosine-protein kinase JAK1 (Homo sapiens, UniProt P23458); test: Selectivity interaction (KinomeScan (DiscoverX)) EUB0000655a JAK1; conditions: at 10 µM
[3] = molecular target: T2, Serine/threonine-protein kinase LATS1 (Homo sapiens) (UniProt O95835); conditions: at 10 µM
T2 sequence (whole entry): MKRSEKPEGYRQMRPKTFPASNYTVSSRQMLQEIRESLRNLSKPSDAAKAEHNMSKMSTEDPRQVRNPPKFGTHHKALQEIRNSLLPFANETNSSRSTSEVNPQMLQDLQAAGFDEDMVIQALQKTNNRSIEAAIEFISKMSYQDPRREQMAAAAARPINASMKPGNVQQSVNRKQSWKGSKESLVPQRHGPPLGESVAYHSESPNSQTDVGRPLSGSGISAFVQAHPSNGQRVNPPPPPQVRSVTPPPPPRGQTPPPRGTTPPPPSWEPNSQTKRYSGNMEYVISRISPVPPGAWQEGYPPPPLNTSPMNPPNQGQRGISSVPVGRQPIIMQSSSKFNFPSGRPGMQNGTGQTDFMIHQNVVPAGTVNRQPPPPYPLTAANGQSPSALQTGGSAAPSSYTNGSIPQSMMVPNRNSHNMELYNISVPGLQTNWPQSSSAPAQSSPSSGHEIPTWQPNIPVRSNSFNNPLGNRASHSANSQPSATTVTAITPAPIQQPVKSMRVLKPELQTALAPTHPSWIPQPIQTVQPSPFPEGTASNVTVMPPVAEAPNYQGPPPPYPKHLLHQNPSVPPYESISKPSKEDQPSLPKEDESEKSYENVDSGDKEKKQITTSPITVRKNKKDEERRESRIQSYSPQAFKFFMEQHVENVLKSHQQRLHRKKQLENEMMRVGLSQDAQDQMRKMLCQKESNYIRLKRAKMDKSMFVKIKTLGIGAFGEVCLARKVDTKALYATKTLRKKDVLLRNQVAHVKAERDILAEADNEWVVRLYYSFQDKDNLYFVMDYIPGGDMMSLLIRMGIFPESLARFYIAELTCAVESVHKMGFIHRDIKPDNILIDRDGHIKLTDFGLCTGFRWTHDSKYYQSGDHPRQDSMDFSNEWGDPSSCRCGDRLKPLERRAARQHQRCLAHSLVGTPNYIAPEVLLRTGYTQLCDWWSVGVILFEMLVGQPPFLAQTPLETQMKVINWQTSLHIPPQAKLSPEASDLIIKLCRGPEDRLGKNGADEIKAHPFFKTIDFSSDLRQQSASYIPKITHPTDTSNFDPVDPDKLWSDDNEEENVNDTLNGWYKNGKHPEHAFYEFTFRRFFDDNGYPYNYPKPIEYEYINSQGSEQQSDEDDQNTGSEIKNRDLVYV

[4] = molecular target: ALK tyrosine kinase receptor (Homo sapiens, UniProt Q9UM73); test: Selectivity interaction (Upstate Kinase Profiler service (Millipore)) EUB0000056c ALK; conditions: at 1 µM
[5] = molecular target: Serine/threonine-protein kinase MRCK beta (Homo sapiens) (UniProt Q9Y5S2); test: Selectivity interaction (Upstate Kinase Profiler service (Millipore)) EUB0000056c CDC42BPB; conditions: at 1 µM
[6] = molecular target: cAMP-dependent protein kinase catalytic subunit alpha (Homo sapiens, UniProt P17612); test: Selectivity interaction (Enzyme panel (AstraZeneca, AlphaScreen, functional assay)) EUB0000621a PRKACA

Chain of ALK tyrosine kinase receptor (Q9UM73 19-1620 limits assumed): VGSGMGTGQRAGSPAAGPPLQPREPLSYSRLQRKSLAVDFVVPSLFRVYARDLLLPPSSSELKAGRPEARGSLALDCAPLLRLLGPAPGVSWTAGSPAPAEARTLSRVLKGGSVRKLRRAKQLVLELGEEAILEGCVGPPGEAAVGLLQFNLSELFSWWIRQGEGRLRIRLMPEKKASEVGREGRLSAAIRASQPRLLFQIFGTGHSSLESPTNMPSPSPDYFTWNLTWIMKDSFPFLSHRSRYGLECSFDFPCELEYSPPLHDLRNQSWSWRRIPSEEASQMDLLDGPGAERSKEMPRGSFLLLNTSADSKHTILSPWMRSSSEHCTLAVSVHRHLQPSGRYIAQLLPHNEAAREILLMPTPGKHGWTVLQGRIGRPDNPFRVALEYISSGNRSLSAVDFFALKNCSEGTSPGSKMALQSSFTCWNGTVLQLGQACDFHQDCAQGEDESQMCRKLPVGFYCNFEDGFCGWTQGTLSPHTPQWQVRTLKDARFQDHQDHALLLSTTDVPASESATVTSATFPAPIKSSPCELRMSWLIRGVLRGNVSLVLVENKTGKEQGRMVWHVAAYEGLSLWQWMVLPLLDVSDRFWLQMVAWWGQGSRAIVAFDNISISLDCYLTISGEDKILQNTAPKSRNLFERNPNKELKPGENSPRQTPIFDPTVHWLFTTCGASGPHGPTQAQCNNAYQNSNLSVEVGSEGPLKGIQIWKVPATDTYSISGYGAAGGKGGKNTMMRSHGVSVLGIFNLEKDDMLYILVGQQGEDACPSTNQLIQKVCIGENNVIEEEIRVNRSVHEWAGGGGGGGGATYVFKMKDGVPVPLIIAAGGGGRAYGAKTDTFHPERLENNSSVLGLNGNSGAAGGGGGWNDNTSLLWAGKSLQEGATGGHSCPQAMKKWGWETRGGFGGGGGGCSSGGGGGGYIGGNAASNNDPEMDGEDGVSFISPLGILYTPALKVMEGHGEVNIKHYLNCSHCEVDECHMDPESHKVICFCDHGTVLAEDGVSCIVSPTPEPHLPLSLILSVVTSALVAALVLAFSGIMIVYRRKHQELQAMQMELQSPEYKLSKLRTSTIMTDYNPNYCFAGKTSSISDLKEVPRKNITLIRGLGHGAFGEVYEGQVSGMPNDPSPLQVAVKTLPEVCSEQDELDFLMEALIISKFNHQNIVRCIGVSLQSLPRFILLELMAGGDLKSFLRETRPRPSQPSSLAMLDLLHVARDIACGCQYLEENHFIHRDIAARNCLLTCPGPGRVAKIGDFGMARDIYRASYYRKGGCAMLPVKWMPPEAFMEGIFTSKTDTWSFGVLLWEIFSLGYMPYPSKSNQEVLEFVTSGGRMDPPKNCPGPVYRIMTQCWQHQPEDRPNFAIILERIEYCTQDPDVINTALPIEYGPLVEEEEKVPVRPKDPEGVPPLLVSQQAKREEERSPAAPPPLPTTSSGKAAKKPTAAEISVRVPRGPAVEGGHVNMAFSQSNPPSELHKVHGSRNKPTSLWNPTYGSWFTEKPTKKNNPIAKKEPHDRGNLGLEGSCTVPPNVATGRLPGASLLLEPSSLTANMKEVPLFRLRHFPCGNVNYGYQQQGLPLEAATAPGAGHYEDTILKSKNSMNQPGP
Chain of Serine/threonine-protein kinase MRCK beta (Homo sapiens) (Q9Y5S2 whole entry): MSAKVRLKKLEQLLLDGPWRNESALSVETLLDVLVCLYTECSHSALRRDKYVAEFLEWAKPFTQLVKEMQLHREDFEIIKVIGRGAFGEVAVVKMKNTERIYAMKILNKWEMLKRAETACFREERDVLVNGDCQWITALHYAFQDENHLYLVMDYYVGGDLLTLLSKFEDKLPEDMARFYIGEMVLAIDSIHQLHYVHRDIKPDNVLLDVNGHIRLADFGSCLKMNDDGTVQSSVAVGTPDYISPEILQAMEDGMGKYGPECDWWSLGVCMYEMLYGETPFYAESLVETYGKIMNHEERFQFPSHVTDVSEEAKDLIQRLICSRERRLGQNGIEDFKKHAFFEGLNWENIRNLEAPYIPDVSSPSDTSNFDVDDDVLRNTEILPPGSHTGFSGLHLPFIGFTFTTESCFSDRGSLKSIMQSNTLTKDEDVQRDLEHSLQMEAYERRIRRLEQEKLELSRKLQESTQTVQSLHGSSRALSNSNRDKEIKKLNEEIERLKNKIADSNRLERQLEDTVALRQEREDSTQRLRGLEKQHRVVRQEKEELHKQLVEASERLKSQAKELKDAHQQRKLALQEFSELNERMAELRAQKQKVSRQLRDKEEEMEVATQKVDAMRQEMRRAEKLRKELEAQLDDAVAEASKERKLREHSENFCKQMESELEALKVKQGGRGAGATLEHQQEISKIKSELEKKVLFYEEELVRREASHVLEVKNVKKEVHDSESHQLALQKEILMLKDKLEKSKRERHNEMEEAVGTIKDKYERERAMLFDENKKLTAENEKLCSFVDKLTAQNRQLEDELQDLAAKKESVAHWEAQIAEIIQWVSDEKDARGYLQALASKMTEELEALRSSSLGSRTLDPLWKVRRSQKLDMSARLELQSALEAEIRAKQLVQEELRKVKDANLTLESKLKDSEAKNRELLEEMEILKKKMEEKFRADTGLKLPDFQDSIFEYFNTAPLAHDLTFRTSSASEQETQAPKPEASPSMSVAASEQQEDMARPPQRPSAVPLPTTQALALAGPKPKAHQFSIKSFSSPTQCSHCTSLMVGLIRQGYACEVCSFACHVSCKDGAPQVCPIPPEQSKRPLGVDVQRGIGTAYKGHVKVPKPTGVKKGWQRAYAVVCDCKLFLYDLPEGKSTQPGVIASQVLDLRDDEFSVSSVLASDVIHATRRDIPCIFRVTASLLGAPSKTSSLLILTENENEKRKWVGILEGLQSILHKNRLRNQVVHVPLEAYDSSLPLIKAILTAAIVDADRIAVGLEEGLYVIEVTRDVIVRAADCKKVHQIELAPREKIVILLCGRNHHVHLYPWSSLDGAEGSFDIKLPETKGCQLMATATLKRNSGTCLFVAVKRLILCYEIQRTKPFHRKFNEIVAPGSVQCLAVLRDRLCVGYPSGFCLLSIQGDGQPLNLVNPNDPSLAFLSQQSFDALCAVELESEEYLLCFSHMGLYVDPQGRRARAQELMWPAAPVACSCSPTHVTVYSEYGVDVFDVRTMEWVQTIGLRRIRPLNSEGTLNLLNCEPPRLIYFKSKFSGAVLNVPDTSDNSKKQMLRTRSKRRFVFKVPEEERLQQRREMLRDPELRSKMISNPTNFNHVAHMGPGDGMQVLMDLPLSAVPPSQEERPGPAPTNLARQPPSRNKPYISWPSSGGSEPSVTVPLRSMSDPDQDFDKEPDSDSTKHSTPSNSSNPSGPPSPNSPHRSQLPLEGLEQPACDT
Chain of Tyrosine-protein kinase JAK1 (P23458 whole entry): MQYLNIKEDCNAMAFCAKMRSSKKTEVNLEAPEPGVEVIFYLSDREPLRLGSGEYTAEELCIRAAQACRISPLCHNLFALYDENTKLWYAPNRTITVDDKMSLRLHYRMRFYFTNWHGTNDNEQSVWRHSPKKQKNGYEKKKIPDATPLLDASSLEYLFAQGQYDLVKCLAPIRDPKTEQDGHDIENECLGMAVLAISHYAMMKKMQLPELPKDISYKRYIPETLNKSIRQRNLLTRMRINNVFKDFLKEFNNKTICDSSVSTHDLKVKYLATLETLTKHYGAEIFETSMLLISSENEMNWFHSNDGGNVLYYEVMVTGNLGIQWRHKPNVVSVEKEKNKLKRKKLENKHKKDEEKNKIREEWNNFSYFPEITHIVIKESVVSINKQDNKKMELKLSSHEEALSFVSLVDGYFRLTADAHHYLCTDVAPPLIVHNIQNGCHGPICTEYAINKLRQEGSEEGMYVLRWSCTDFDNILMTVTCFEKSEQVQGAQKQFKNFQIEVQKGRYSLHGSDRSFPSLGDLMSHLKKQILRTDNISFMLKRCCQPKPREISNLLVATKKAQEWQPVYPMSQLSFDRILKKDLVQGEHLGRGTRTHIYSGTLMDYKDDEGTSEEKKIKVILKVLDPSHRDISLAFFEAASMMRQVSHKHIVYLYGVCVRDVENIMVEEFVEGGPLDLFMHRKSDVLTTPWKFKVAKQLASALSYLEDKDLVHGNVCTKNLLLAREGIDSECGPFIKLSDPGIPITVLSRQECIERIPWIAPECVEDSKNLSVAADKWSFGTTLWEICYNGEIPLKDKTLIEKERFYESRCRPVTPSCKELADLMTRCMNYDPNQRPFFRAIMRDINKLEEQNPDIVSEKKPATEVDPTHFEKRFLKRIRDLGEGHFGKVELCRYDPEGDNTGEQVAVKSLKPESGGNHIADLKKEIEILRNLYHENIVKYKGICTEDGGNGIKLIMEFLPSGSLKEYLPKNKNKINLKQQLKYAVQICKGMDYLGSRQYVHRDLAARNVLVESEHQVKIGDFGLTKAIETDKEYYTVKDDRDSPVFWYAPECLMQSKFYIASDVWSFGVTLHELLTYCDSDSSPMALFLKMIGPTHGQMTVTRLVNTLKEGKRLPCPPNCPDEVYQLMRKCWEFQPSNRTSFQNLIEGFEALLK

% of inhibition [1]: 24.4%
Structure (SMILES): CC[C@@H](Nc1c(C#N)c(-c2ccc(-c3cccc(C)c3F)cc2)nc2cnccc12)C(=O)O [BAY-091]

Structure (SMILES): CN(C)CCOc1ccc(-c2nc(-c3ccncc3)c(-c3ccc4c(c3)CC/C4=N\O)[nH]2)cc1
% of control [2]: 0.5%

Structure (SMILES): COCC(=O)NC/C=C/c1ccc2ncnc(Nc3ccc(Oc4ccc(C)nc4)c(C)c3)c2c1 [CP-724714]
% of control [3]: 100%

% of inhibition [4]: 43%
% of inhibition [5]: 4%
Structure (SMILES): Cc1ccc(-c2ccc3c(ccc4sc5c(c43)NC[C@@H](C)NC5=O)n2)cn1

Structure (SMILES): Cc1cc([C@@H](C)Nc2ccccc2C(=O)O)c2nc(N3CCOCC3)cc(=O)n2c1 [AZD-6482]
pIC50 [6]: < 3.00
